Experimental findings from patent US9060966B2, “Use of 2,5-dihydroxybenzene derivatives for the treatment of arthritis and pain” (priority 2006, dated 2015) are described below.

The target of test [1] is T1, fibroblast growth factor-1 (FGF-1) (Homo sapiens, UniProt P05230). In words: Inhibition of fibroblast mitogenesis induced by FGF-1 in Balb/c 3T3 fibroblasts. Type of test: cell-based. Also on record: host or cells: added to Balb/c 3T3 fibroblasts (mouse). As to conditions: quiescent Balb/c 3T3 cultures; potassium salts, except 2-acetoxy-5-hydroxybenzene sulfonate as calcium salt. The protocol: The evaluated compounds were used in the form of potassium salt, except in the first case in which calcium salt was used. The experiments were carried out as described in Fernandez-Tornero C et al. J Biol Chem, 2003.

Test [2] concerns the target T1, fibroblast growth factor-1 (FGF-1). Briefly: Co-crystallisation with FGF-1 (crystal diffraction of complexes). Type of test: binding. An excerpt:
FIG. 24. 2-acetoxy-5-hydroxybenzenesulfonic acid co-crystallized with fibroblast growth factor-1. […] The compound occupies a place that is very close to that described occupied by 2,5-dihydroxybenzenesulfonic acid, the aromatic ring of which forms a […] bond with the N^ε group of lysine 132, which is marked in panel A as reference. […] In panels A and B, the protein surface is colored according to its electrostatic potential (light grey: negative charge; dark grey: positive charge; white: lack of charge).
FIG. 25. 5-acetoxy-2-hydroxybenzenesulfonic acid co-crystallized with fibroblast growth factor-1. […] The compound occupies a place that is very close to that described occupied by 2,5-dihydroxybenzenesulfonic acid, the aromatic ring of which forms a cation-π bond with the N^ε group of lysine 132, which is marked in panel A as reference. […] In panels A and B, the protein surface is colored according to its electrostatic potential (light grey: negative charge; dark grey: positive charge; white: lack of charge).
FIG. 26. 2,5-diacetoxybenzenesulfonic acid co-crystallized with fibroblast growth factor-1. […] The compound occupies a place that is very close to that described occupied by 2,5-dihydroxybenzenesulfonic acid, the aromatic ring of which forms a cation-π bond with the N^ε group of lysine 132, which is marked in panel A as reference. […] In panels A and B, the protein surface is colored according to its electrostatic potential (light grey: negative charge; dark grey: positive charge; white: lack of charge).
Based on the crystal diffraction of the FGF-1:2-acetoxy-5-hydroxybenzene sulfonic acid, FGF-1:5-acetoxy-2-hydroxybenzene sulfonic acid and FGF-1:2,5-diacetoxybenzene sulfonic acid complexes, the structures of the complexes were calculated and represented. FIGS. 24, 25 and 26, which show the surface of the dyed protein according to its electrostatic potential (light grey: negative charge; dark grey: positive charge; white: lack of charge), show the manner in which 2-acetoxy-5-hydroxybenzene sulfonic acid, 5-acetoxy-2-hydroxybenzene sulfonic acid and 2,5-diacetoxybenzene sulfonic acid interact, respectively, with FGF-1.

The subject of a further test is infantile hemangioma. Briefly: Topical treatment of infantile hemangioma in a child. The format is in vivo, human. Particulars: cream 2.5%, topical twice a day, 1, 2 and 3 months, one child. From the text: Photographs of a child showing the effects of the topical treatment with a cream comprising 2,5-dihydroxybenzenesulfonic (DHBS) (2.5%) in a baby suffering infantile hemangioma.
The cream comprising 2,5-dihydroxybenzene sulfonic (2.5%) was topically applied twice a day for 3 months on the face of a child suffering from infantile hemangioma.

In test [3] the test system is human retinal endothelial cells (HREC). In words: Proliferation of human retinal endothelial cells (HREC, crystal violet). The format is cell-based. Particulars: calcium 2,5-dihydroxybenzenesulfonate, 100 μM, 72 h, for comparison. The protocol: (§1) 2A-5HBS was administered or not administered (control) after seeding the HREC in 24-well plates (7.5×10^3 per well) until they were fixed after 72 hours. The data are expressed as the mean±SEM of the percentage of the absorbance at 595 nm obtained in the control cultures, which is proportional to the number of cells stained with crystal violet. The data were obtained from 6 cultures for each treatment in two separate experiments. The white bar represents the value of the control cells, whereas the gray bars show the value in the presence of 2A-5HBS (500 and 1000 μM). * indicates p<0.05, *** p<0.001 with respect to the control by means of a single-factor analysis of variance (ANOVA) followed by a Student-Newman-Keuls post-analysis.
as §1, with “5A-2HBS” for “2A-5HBS”, “striped” for “gray”, “***” for “*”, “indicates” for “indicates p<0.05, ***”
2,5-DHCME was administered or not administered (control) after seeding the HREC in 24-well plates (7.5×10^3 per well) until they were fixed after 72 hours. The data are expressed as the mean±SEM of the percentage of the absorbance at 595 nm obtained in the control cultures, which is proportional to the number of cells stained with crystal violet. The data were obtained from 6 cultures for each treatment in two separate experiments.
Primary cultures of human retinal endothelial cells (HREC) were used. Cells were obtained from Cell Systems (Virginia, USA) and subcultured with CSC complete medium (Cell Systems). Cells at 2 to 5 passages were seeded in 24-well plates at 7,500 cells/well density and, once attached, the cells were treated o not treated (controls) with 2A-5HBS (500 and 1000 μM) or 5A-2HBS (500 and 1000 μM) and they were allowed to proliferate for 72 hours, with daily medium changes. After that, the proliferation of HREC was evaluated by staining the fixed cells with crystal violet. The number of cells is proportional to the amount of retained dye, which was spectrophotometrically determined by measuring absorbance at 595 nm after removing the dye from the cells. Data are expressed as the percentage of absorbance at 595 nm obtained in control conditions. Data were obtained from two different experiments performed in triplicate.
Primary cultures of human retinal endothelial cells (HREC) were used. Cells were obtained from Cell Systems (Virginia, USA) and subcultured with CSC complete medium (Cell Systems). […] After that, the proliferation of HREC was evaluated by staining the fixed cells with crystal violet. The number of cells is proportional to the amount of retained dye, which was spectrophotometrically determined by measuring absorbance at 595 nm after removing the dye from the cells. Data are expressed as the percentage of absorbance at 595 nm obtained in control conditions. […]

T1 sequence (P05230 whole entry, species assumed): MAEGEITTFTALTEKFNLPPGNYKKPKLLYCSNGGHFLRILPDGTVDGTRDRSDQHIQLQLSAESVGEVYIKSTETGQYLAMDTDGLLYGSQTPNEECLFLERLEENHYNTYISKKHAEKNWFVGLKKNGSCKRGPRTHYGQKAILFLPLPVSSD

As to `CC(=O)Oc1ccc(OC(C)=O)c(S(=O)(=O)[O-])c1.[K+]` [DABS, potassium 2,5-diacetoxybenzene sulfonate], the FGF-1 induced mitogenesis result in test [1] was “Inhibition”. The “acetoxyl groups of the compound when bound to the protein” value in test [2] (electron density contoured at 1σ) is reported as “conserve the acetoxyl groups”. For the same molecule, the “binding site on FGF-1 in the crystal complex” value in test [2] (reference: site of 2,5-dihydroxybenzene sulfonic acid, lysine 132) is “a site that is very close to the one that has been described occupied by 2,5-dihydroxybenzene sulfonic acid”.
On to `O=S(=O)(O)c1cc(O)ccc1O` [DHBS, 2,5-dihydroxybenzenesulfonic acid], for which, in the test with infantile hemangioma, the hemangioma lesion appearance entry is “substantial recovery of the lesion”. Also, the HREC proliferation entry in test [3] is recorded as “failed to significantly affect”.
